# Laboratory results taken from EP0993306B1, “PERFLUOROALKYLATED OLIGOMER COMPOUNDS, PROCESS FOR PREPARING THE SAME AND THEIR USE IN NMR DIAGNOSIS” (SCHERING AKTIENGESELLSCHAFT, priority 1997, dated 1999).
# Key:
# [1] = T1 relaxivity in human plasma (Minispec pc 20); type: physicochemical; details: for R^1 (T^1-Relaxivity): 0.47 T, 20 MHz, 37 °C, Humanplasma, normalised to one metal atom
# [2] = Excretion after s.c. administration: metal retention in liver, kidneys, spleen; type: in vivo, Meerschweinchen; details: 10 µmol/kg interstitial, MW ± SD, n=2
# Text: Nach subkutaner Gabe von 10 µmol Gesamtgadolinium (Beispiel 19) /kg Körpergewicht in die Hinterpfote des Meerschweines wurde 7 Tage nach Applikation die Retention des Metalls in der Leber, in den Nieren sowie in der Milz untersucht.
# [3] = Retention of the contrast metal at the injection site (paw); type: in vivo, Meerschweinchen; details: 10 µmol/kg interstitial, MW ± SD, n=3
# Text: Nach s.c. Gabe von 10 µmol Gesamtgadolinium (Beispiel 19)/kg Körpergewicht in die Meerschweinchenpfote wurde die Retention des Metalls am Injektionsort zu verschiedenen Zeitpunkten untersucht.
# [4] = Lymph node accumulation in stimulated guinea pigs after s.c. administration (ICP-AES); type: in vivo, Meerschweinchen; details: 10 µmol/kg s.c. hind paw, MW ± SD, n=3
# Text: Die erfindungsgemäßen Verbindungen erfüllen alle Voraussetzungen, die von Kontrastmitteln in der indirekten NMR-Lymphographie verlangt werden: gute lokale Verträglichkeit, rascher Abtransport vom Injektionsort, rasche und weitestgehend vollständige Ausscheidung aus dem Gesamtorganismus. Ferner zeigen sie eine hohe Anreicherung über mehrere Lymphknotenstationen und erlauben damit relevante diagnostische Aussagen. So konnte am Meerschweinchenmodell eine hohe Anreicherung über mehrere Lymphknotenstationen (popliteal, inguinal, iliakal) nach s.c. Gabe (2,5-10 µmol/kg Körpergewicht, Injektion in Zwischenzehenräume der Hinterpfote) gezeigt werden. In besonders geeigneten Fällen wurden so in der zweiten (inguinal) und dritten (iliakal) Station noch Gadoliniumkonzentrationen von jeweils ≥ 200 bzw. ≥ 300 µmol/l erhalten. Üblicherweise sind mit den erfindungsgemäßen Verbindungen Lymphknotenkonzentrationen bis zu 1000 µmol/l zu erhalten.
# Der Gadolinium-Komplex des Beispiels 19 wurde 30 Min./ 90 Min. nach subkutaner Gabe (10 µmol Gesamtgadolinium/kg KG, Hinterpfote s.c.) an stimulierten Meerschweinchen (komplettes Freund-Adjuvant; jeweils 0,1 ml i.m. in den rechten und linken Ober- und Unterschenkel; 2 Wochen vor Gabe der Prüfsubstanz) hinsichtlich ihrer Lymphknotenanreicherung in drei aufeinanderfolgenden Lymphknotenstationen (popliteal, inguinal, iliakal) untersucht. Hierbei wurden die nachfolgend aufgelisteten Ergebnisse (Ermittlung der Gadolinium-Konzentration mittels ICP-AES) erhalten: […]
# [5] = rat, in vivo, iv, 100 umol/kg
# Text: Hierfür wurde nach einmaliger intravenöser Applikation (via einer Caudalvene) der Substanzen (Dosis: ≈ 100 µmol Metall pro kg Körpergewicht) die Substanzkonzentration im Blut (basierend auf dem Gd- bzw. Dy-Gehalt) über einen Zeitraum bis zu 120 Minuten p. i. mittels ICP-AES bestimmt. Die pharmakokinetischen Parameter: Verteilungsvolumen (Vss), Gesamtclearance (CLtot) und Eliminationshalbwertszeit (tb) wurden mit einem speziellen Computerprogramm (TOPFIT 2.0; Thomae, Schering, Gödecke) berechnet, wobei ein Zwei-Kompartment-Distributionsmodell zu Grunde gelegt wurde.
# Die Gd- und Dy-Gehalte im Blut wurden mittels ICP-AES bestimmt.
# Hierfür wurde nach einmaliger intravenöser Applikation (via einer Caudalvene) der Substanzen (Dosis: ≈ 100 µmol Metall pro kg Körpergewicht) die Substanzkonzentration im Blut (basierend auf dem Metallgehalt) über einen Zeitraum bis zu 120 Minuten p. i. mittels ICP-AES bestimmt. Die pharmakokinetischen Parameter: Verteilungsvolumen (Vss), Gesamtclearance (CLtot) und Eliminationshalbwertszeit (tb) wurden mit einem speziellen Computerprogramm (TOPFIT 2.0; Thomae, Schering, Gödecke) berechnet, wobei ein Zwei-Kompartment-Distributionsmodell zu Grunde gelegt wurde.
# [6] = 39 °C, 0,47 T; cited from earlier work
# [7] = Diffusibility: in vivo comparison with an intravasal and an extracellular contrast agent, ligated renal vessels; details: i.v. 20 µmol/kg each, ligated renal vessels, relative to Verbindung 2 set as 100 %
# Protocol: (§1) Als Versuchstiere dienten drei 250 g schwere, männliche (Schering-SPF-) Ratten. Den Tieren wurden die Nierengefäße abgebunden, um eine renale Eliminierung zu verhindern und bei angenommener vernachlässigbarer faekaler Eliminierung ein Maß für Diffusibilität der erfindungsgemäßen Formulierung aus dem Blut in das umgebende Gewebe zu erhalten. Je Tier wurden 0.5 ml (jeweils 10 mmol/L) der folgenden Kontrastmittel-Lösung intravenös appliziert: Gemisch aus je 1 Teil der Verbindung des Beispiels 1g, im folgenden Verbindung 1 genannt, des intravasalen Kontrastmittels Eu-DTPA-Albumin, im folgenden Verbindung 2 genannt, und des extrazellulären Kontrastmittels Dy-DTPA, im folgenden Verbindung 3 genannt. Über einen Katheter in der Arteria carotis communis wurden Blutproben zu folgenden Zeitpunkten entnommen: 15, 30, 45, 60, 90 sec, 3, 5, 10, 15 min p.i. In den gewonnenen Blutproben wurden jeweils parallel die Konzentrationen an Gadolinium (Gd), Europium (Eu) und Dysprosium (Dy) mittels Atomemissionsspektrometrie (ICP-AES) gemessen. Der im Blutraum verbliebene Anteil des intravasalen Kontrastmittels Verbindung 2 (Eu) wurde als 100 % gesetzt. Der im Blutraum verbliebene Anteil der erfindungsgemäßen Formulierung Verbindung 1 (Gd) und der Verbindung 3 (Dy, extrazelluläre Vergleichssubstanz) konnte durch die unterschiedliche Markierung im gleichen Tier verglichen werden und wurde prozentual ins Verhältnis zur Konzentration der Verbindung 2 gesetzt. Damit liefern diese Daten Angaben über den Verbleib der Verbindungen im Intravasalraum.
# [8] = as above; parameters: species or system Ratte; details: i.v. 20 µmol/kg each, relative to Verbindung 2 set as 100 %
# Protocol: as §1
molecule,measurement,setting,value
"1,4,7-Tris(N-3,3,6-tris(carboxylatomethyl)-6-[N-3-aza-2,5-dioxo-pentan-1,5-diyl]-3,6,9-triazaundecan-1,11-disäure, Gd-Komplex, Mononatriumsalz}-10-2H,2H,4H,4H,5H,5H-3-oxa-perfluor-tridecanoyl)-1,4,7,10-tetraazacyclododecan [Beispiel 8 b)]",R^1 (T^1-Relaxivity),[1],"20,6 L/mmol * sec"
"1,4,7-Tris{1,4,7-tris-(N-carboxylatomethyl)-10-[N-(4,7-diaza-3,6,9-trioxo)-nonan-2,9-diyl]-1,4,7,10-tetraazacyclododecan, Gd-Komplex-10-(N-22F,22F,22F,21F,21F, 20F,20F,19F, 19F, 18F, 18F, 17F,17F, 16F, 16F, 15F, 15F-heptadecafluor-12-oxadocosanoyl)-1,4,7,10-tetraazacyclododecan [Beispiel 14 e)]",R^1 (T^1-Relaxivity),[1],"19,3 L/mmol * sec"
"1,4,7-Tris{N-3,9-bis(carboxylatomethyl)-6-[N-3-aza-2,5-dioxo-pentan-1,5-diyl]-3,6,9-triazaundecan-1-carboxylato-11-säure, Gd-Komplex, Natriumsalz}-10-[Nacetyl-(2-amino-N-ethyl-N-perfluoroctylsulfonyl)]-1,4,7,10-tetraazacyclododecan [Beispiel 18 d)]",R^1 (T^1-Relaxivity),[1],"23,0 L/mmol * sec"
"1,4,7-Tris{N-[3,9-bis{N-carboxylatomethyl)]-6-[N-{3-aza-2,5-dioxo-pentan)-1,5-diyl]-3,6,9-triazaundecan-1-carboxylato-11-säure, Gd-Komplex, Mononatriumsalz}-10-N-{undecanoyl-〈11-amino-N-[acetyl-(2-amino-N-ethyl-N-perfluoroctylsulfonyl)]) }-1,4,7,10-tetraazacyclododecan [Beispiel 25 f)]",R^1 (T^1-Relaxivity),[1],"15,1 L/mmol * sec"
"1,4,7-Tris{N-hexanoyl-2,6-bis〈*amino-N-acetyl-2-[3,9-bis(N-carboxylato-methyl)-6-yl-3,6,9-triazaundecan-1-carboxylato-11-säure, Gd-Komplex, Mononatriumsalz]〉}-10-[N-acetyl-(2-amino-N-ethyl-N-perfluoroctylsulfonyl)]-1,4,7,10-tetraazacyclododecan [Beispiel 26 d)]",R^1 (T^1-Relaxivity),[1],"13,0 L/mmol * sec"
"1,4,7-Tris{N-hexanoyl-2,6-bis〈amino-N-acetyl-2-[aminopropanoyl-(2-yl)]-[1,4,7-tris(Ncarboxylatomethyl)-1,4,7,10-tetraazacyclododecan-10-yl, Gd-Komplex]〉}-10-[N-acetyl-(2-amino-N-ethyl-N-perfluoroctylsulfonyl)]-1,4,7,10-tetraazacyclododecan [Beispiel 27]",R^1 (T^1-Relaxivity),[1],"16,1 L/mmol * sec"
"CCN(CC(=O)N1CCN(C(=O)CNC(=O)CNC(=O)C(C)N2CCN(CC(=O)[O-])CCN(CC(=O)[O-])CCN(CC(=O)[O-])CC2)CCN(C(=O)CNC(=O)CNC(=O)C(C)N2CCN(CC(=O)[O-])CCN(CC(=O)[O-])CCN(CC(=O)[O-])CC2)CCN(C(=O)CNC(=O)CNC(=O)C(C)N2CCN(CC(=O)[O-])CCN(CC(=O)[O-])CCN(CC(=O)[O-])CC2)CC1)S(=O)(=O)C(F)(F)C(F)(F)C(F)(F)C(F)(F)C(F)(F)C(F)(F)C(F)(F)C(F)(F)F.[Gd+3].[Gd+3].[Gd+3] (centres unmarked) [Beispiel 19, 1,4,7-Tris{1,4,7-tris(N-carboxylatomethyl)-10-[N-(4,7-diaza-3,6,9-trioxo)-nonan-2,9-diyl]-1,4,7,10-tetraazacyclododecan, Gd-Komplex}-10-[N-acetyl-(2-amino-N-ethyl-N-perfluor-octylsulfonyl)]-1,4,7,10-tetraazacyclododecan]","Gadolinium-Gehalt in den Organen 7 d p.i., Leber",[2],0.09 ± 0.09 % Dosis
same,"Gadolinium-Gehalt in den Organen 7 d p.i., Milz",[2],0.00 ± 0.01 % Dosis
same,"Gadolinium-Gehalt in den Organen 7 d p.i., Nieren",[2],0.06 ± 0.04 % Dosis
same,Gadolinium-Konzentration an der Injektionsstelle (Pfote),[3]; 30 min p.i.,"48,4 ± 10,4 % Dosis"
same,Gadolinium-Konzentration an der Injektionsstelle (Pfote),[3]; 90 min p.i.,"8,0 ± 1,7 % Dosis"
same,Gadolinium-Konzentration an der Injektionsstelle (Pfote),[3]; 7 d p.i.,"0,7 ± 0,6 % Dosis"
same,"Gd-Konzentration, Blut",[4]; 30 min p.i.,24 ± 3 µmol/L
same,"Gd-Konzentration, Lymphknoten iliakal",[4]; 30 min p.i.,50 ± 18 µmol/L
same,"Gd-Konzentration, Lymphknoten inguinal profund",[4]; 30 min p.i.,43 ± 41 µmol/L
same,"Gd-Konzentration, Lymphknoten popliteal",[4]; 30 min p.i.,345 ± 319 µmol/L
same,"Gd-Konzentration, Urin",[4]; 30 min p.i.,261 ± 167 µmol/L
same,"Gd-Konzentration, Blut",[4]; 90 min p.i.,25 ± 4 µmol/L
same,"Gd-Konzentration, Lymphknoten iliakal",[4]; 90 min p.i.,20 ± 8 µmol/L
same,"Gd-Konzentration, Lymphknoten inguinal profund",[4]; 90 min p.i.,9 ± 2 µmol/L
same,"Gd-Konzentration, Lymphknoten popliteal",[4]; 90 min p.i.,75 ± 20 µmol/L
same,"Gd-Konzentration, Urin",[4]; 90 min p.i.,348 ± 119 µmol/L
same,CL tot,[5],0.0564 L/h/kg
same,Vss,[5],0.12 L/kg
same,R^1 (T^1-Relaxivity),[1],"21,4 L/mmol * sec"
same,"Relaxivity (r1, Plasma)",[1]; plasma,≈ 19.5 1*mmol^- ^1*s^-1
"C[NH2+]C[C@@H](O)[C@@H](O)[C@H](O)[C@@H](O)CO.C[NH2+]C[C@@H](O)[C@@H](O)[C@H](O)[C@@H](O)CO.O=C([O-])CN(CCN(CC(=O)[O-])CC(=O)[O-])CCN(CC(=O)[O-])CC(=O)[O-].[Gd+3] [Magnevist ®, Di-N-methylglucaminsalz des Gd-DTPA-Komplexes, reference compound]",T^1-Relaxivity,[6],"3,5 - 4,9 mM^-1 · sec^-1"
same,R^1 (T^1-Relaxivity),[1],"4,8 L/mmol * sec"
CNC(=O)CN(CCN(CCN(CC(=O)[O-])CC(=O)NC)CC(=O)[O-])CC(=O)[O-].[Gd+3] [Omniscan®],T^1-Relaxivity,[6],"3,5 - 4,9 mM^-1 · sec^-1"
CC(O)CN1CCN(CC(=O)[O-])CCN(CC(=O)[O-])CCN(CC(=O)[O-])CC1.[Gd+3] (centres unmarked) [Pro Hance®],T^1-Relaxivity,[6],"3,5 - 4,9 mM^-1 · sec^-1"
Dy-DTPA [reference compound],Prozentsatz der im Blutraum verbliebenen Dosis,[7]; 30 sec p.i.,48%
same,Prozentsatz der im Blutraum verbliebenen Dosis,[7]; 3 min p.i.,25%
same,Prozentsatz der im Blutraum verbliebenen Dosis,[7]; 10 min p.i.,21%
same,Vss,[5],0.17 L/kg
"Gadolinium-III-Komplex des 1,4,7,10-Tetracarboxymethyl-1,4,7,10-tetraazacyclododecans [Dotarem®]",T^1-Relaxivity,[6],"3,5 - 4,9 mM^-1 · sec^-1"
Verbindung 2: intravasales Kontrastmittel Eu-DTPA-Albumin,Prozentsatz der im Blutraum verbliebenen Dosis,[8]; 30 sec p.i.,100%
same,Prozentsatz der im Blutraum verbliebenen Dosis,[8]; 3 min p.i.,100%
same,Prozentsatz der im Blutraum verbliebenen Dosis,[8]; 10 min p.i.,100%
